In patent US8614236B2 (University of Washington, priority 2006, dated 2013):
“Also recorded” adds a separate entry of the source.

Key:
Beagle dogs = assay: Dog study: pulmonary and systemic hemodynamics, hypoxic pulmonary vasoconstriction; type: in vivo; details: for MPAP and PVR during hypoxia (words): iv bolus + continuous infusion (AZ, benzolamide 2 mg/kg + 2 mg/kg/h; ethoxzolamide 1 mg/kg + 1 mg/kg/h)
Experimental: A total of 30 experiments were performed on six female Beagle dogs (body wt 14.3±0.3 kg). The dogs were kept under highly standardized conditions and received a standardized diet five days before the experiments. The preparation and catheterization of the conscious dog were performed according to former experiments as in Höhne C., et al., J Appl Physiol (2004), which is hereby incorporated by reference in its entirety. To permit spontaneous breathing through a low resistance circuit, a face mask was attached, which enclosed the dog's snout in a leak proof fashion. This custom made mask is equipped with a 2.5 cm ID connector to connect it to a ventilator set to CPAP mode (3 4 cmH20) (Servo900C; Siemens-Elema, Erlangen/Germany).
Six dogs were studied in five different protocols in randomized order:
4) Benzolamide intravenously: Bolus (2 mg/kg), followed by a continuous infusion of 2 mg·kg^−1·h^−1, a dosage which inhibits only renal and vascular endothelial extracellular CA, without affecting red cell CA as in Travis D. M., et al. J Pharmacol Exp Ther (1964), which is hereby incorporated by reference in its entirety. 5) Ethoxzolamide (Sigma-Aldrich, Steinheim/Germany) intravenously: Bolus ethoxzolamide (1 mg/kg), followed by a continuous infusion of 1 mg·kg^−1·h^−1.
In control experiments, the dogs breathed room air (21% O2, 79% N2; normoxia) for one hour, followed by breathing a gas mixture containing 10% O2 and 90% N2 for two hours (hypoxia). The time course was the same for the CA inhibitor experiments, but F1O2 was reduced to 0.09 during the hypoxia period to match the arterial and alveolar PO2 of the control dogs, which otherwise would have been higher on 10% O2 as a result of the known ventilatory stimulant effect of all CA inhibitors. See Höhne C., et al., J Appl Physiol 97:515-521 (2004), which is hereby incorporated by reference in its entirety. The hemodynamic measurements (arterial blood pressure, heart rate, central venous pressure, pulmonary artery pressure, pulmonary capillary wedge pressure), minute ventilation, renal function data, time points for blood samples for blood gases, actual bicarbonate, base excess, plasma electrolytes and hormones, measurements of plasma and urinary values were according to former studies. See Höhne C., et al., J Appl Physiol 90:1842-1848 (2001), which is hereby incorporated by reference in its entirety.
Values are given as means±SEM (n=6). For intra-group comparisons a general linear model of analysis of variance (GLM-ANOVA) for repeated measures was applied (NCSS97/PASS 2000, Saugus/MA, USA). Post-hoc testing of means was performed with Student's t-test. Level of significance for error of first order was adjusted according to Holm's procedure. Statistical significance was assumed at p<0.05.

PASMCs = assay: Hypoxia-induced increase in [Ca2+]i in PASMCs (4% O2); type: cell-based, rat; details: 10-100 μM
Experimental: Intrapulmonary arteries (200-600 μm o.d.) were isolated from male Wistar rats (250-350 g) and cleaned of connective tissue. After the lumen was gently rubbed with a cotton swab to remove the endothelial cells, the arteries were allowed to recover for 30 minutes in cold (4° C.) HBSS containing (in mM): 130 NaCl, 5 KCl, 1.2 MgCl2, 1.5 CaCl2, 10 N-[2-hydroxyethyl]piperazine-N′-[2-ethanesulfonic acid] (HEPES) and 10 glucose, with pH adjusted to 7.2 with 5 M NaOH, followed by 20 minutes in reduced-Ca^2+ (20 μM CaCl2) HBSS at room temperature. […] Following digestion, single smooth muscle cells were dispersed by gentle trituration with a wide-bore transfer pipette in Ca^2+-free HBSS and the cell suspension was placed on 25 mm glass cover slips. PASMCs were transiently cultured in Ham's-F-12 media supplemented with 0.5% fetal bovine serum and 1% penicillin/streptomycin for 24-48 hrs. before study.
Acute hypoxia increases intracellular [Ca^2+] in pulmonary arterial smooth muscle by enhancing capacitative Ca^2+ entry. […] Ratiometric measurement of fluorescence from the dye was performed on a workstation (Intracellular Imaging Inc, Cincinnati, Ohio) consisting of a Nikon TSE 100 Ellipse inverted microscope with epi-fluorescence attachments. The light beam from a xenon arc lamp was filtered at 340 and 380 nm, and focused onto the PASMCS under examination via a 20× fluorescence objective (Super Fluor 20, Nikon). Light emitted from the cell at 510 nm was returned through the objective and detected by a cooled CCD imaging camera. An electronic shutter (Sutter Instruments) was used to minimize photobleaching of dye. Protocols were executed and data collected on-line with InCyte software (Intracellular Imaging Inc). [Ca^2+]i was estimated from in vitro calibration solutions.

[1] = iv bolus + continuous infusion, hypoxia 2nd h
[2] = iv bolus + continuous infusion, hypoxia 3rd h
[3] = iv bolus + continuous infusion, normoxia 1st h
[4] = po 5 mg/kg 12 and 1 hr before, hypoxia 2nd h
[5] = po 5 mg/kg 12 and 1 hr before, hypoxia 3rd h
[6] = po 5 mg/kg 12 and 1 hr before, normoxia 1st h

CCOc1ccc2nc(S(N)(=O)=O)sc2c1 [EZ, ethoxzolamide]
MPAP and PVR during hypoxia (words) (Beagle dogs): increased; also recorded: did not prevent
CO, cardiac output (Beagle dogs; [1]): 2.9 ± 0.2 L/min
CVP, central venous pressure (Beagle dogs; [1]): 2.5 ± 0.2 cmH2O
HR, heart rate (Beagle dogs; [1]): 104 ± 6 beats/min
MAP, mean arterial pressure (Beagle dogs; [1]): 104 ± 7 mmHg
MPAP, mean pulmonary arterial pressure (Beagle dogs; [1]): 17 ± 1 mmHg
PCWP, pulmonary capillary wedge pressure (Beagle dogs; [1]): 4.0 ± 0.5 cm H2O
SVR, systemic vascular resistance (Beagle dogs; [1]): 2745 ± 154 dyn · s^1 · cm^−5
CO, cardiac output (Beagle dogs; [2]): 2.9 ± 0.3 L/min
CVP, central venous pressure (Beagle dogs; [2]): 2.5 ± 0.2 cmH2O
HR, heart rate (Beagle dogs; [2]): 106 ± 4 beats/min
MAP, mean arterial pressure (Beagle dogs; [2]): 101 ± 1 mmHg
MPAP, mean pulmonary arterial pressure (Beagle dogs; [2]): 16 ± 1 mmHg
PCWP, pulmonary capillary wedge pressure (Beagle dogs; [2]): 3.5 ± 0.3 cm H2O
SVR, systemic vascular resistance (Beagle dogs; [2]): 3270 ± 380 dyn · s^1 · cm^−5
CO, cardiac output (Beagle dogs; [3]): 2.8 ± 0.2 L/min
CVP, central venous pressure (Beagle dogs; [3]): 2.3 ± 0.2 cmH2O
HR, heart rate (Beagle dogs; [3]): 77 ± 4 beats/min
MAP, mean arterial pressure (Beagle dogs; [3]): 96 ± 2 mmHg
MPAP, mean pulmonary arterial pressure (Beagle dogs; [3]): 11 ± 1 mmHg
PCWP, pulmonary capillary wedge pressure (Beagle dogs; [3]): 3.8 ± 0.2 cm H2O
PVR, pulmonary vascular resistance (Beagle dogs; [3]): 221 ± 21 dyn · s^−1 · cm^−5
SVR, systemic vascular resistance (Beagle dogs; [3]): 2784 ± 200 dyn · s^1 · cm^−5
effect on hypoxia-induced increase in [Ca^2+]i (PASMCs): no effect
effect on hypoxia-induced increase in [Ca^2+]i (PASMCs; listed as EF): neither EF (FIG. 5) nor BZ (FIG. 6) had a significant effect

CC(=O)Nc1nnc(S(N)(=O)=O)s1 [AZ, acetazolamide]
MPAP and PVR during hypoxia (words) (Beagle dogs): did not change
MPAP and PVR during hypoxia (words) (Beagle dogs; listed as acetazolamide): still inhibited
CO, cardiac output (Beagle dogs; [1]): 2.6 ± 0.2 L/min
CVP, central venous pressure (Beagle dogs; [1]): 2.6 ± 0.6 cmH2O
HR, heart rate (Beagle dogs; [1]): 92 ± 9 beats/min
MAP, mean arterial pressure (Beagle dogs; [1]): 109 ± 7 mmHg
MPAP, mean pulmonary arterial pressure (Beagle dogs; [1]): 15 ± 1 mmHg
PCWP, pulmonary capillary wedge pressure (Beagle dogs; [1]): 3.5 ± 0.3 cm H2O
SVR, systemic vascular resistance (Beagle dogs; [1]): 3348 ± 260 dyn · s^1 · cm^−5
CO, cardiac output (Beagle dogs; [2]): 2.4 ± 0.1 L/min
CVP, central venous pressure (Beagle dogs; [2]): 1.8 ± 0.5 cmH2O
HR, heart rate (Beagle dogs; [2]): 98 ± 8 beats/min
MAP, mean arterial pressure (Beagle dogs; [2]): 111 ± 6 mmHg
MPAP, mean pulmonary arterial pressure (Beagle dogs; [2]): 14 ± 1 mmHg
PCWP, pulmonary capillary wedge pressure (Beagle dogs; [2]): 3.3 ± 0.2 cm H2O
SVR, systemic vascular resistance (Beagle dogs; [2]): 3675 ± 241 dyn · s^1 · cm^−5
CO, cardiac output (Beagle dogs; [3]): 2.4 ± 0.2 L/min
CVP, central venous pressure (Beagle dogs; [3]): 1.8 ± 0.3 cmH2O
HR, heart rate (Beagle dogs; [3]): 70 ± 5 beats/min
MAP, mean arterial pressure (Beagle dogs; [3]): 97 ± 4 mmHg
MPAP, mean pulmonary arterial pressure (Beagle dogs; [3]): 14 ± 0 mmHg
PCWP, pulmonary capillary wedge pressure (Beagle dogs; [3]): 3.5 ± 0.6 cm H2O
SVR, systemic vascular resistance (Beagle dogs; [3]): 3347 ± 260 dyn · s^1 · cm^−5
PVR during hypoxia (Beagle dogs; po 5 mg/kg 12 and 1 hr before): did not change
MPAP during hypoxia (Beagle dogs; po 5 mg/kg 12 and 1 hr before, after 2 hrs of hypoxia): increased slightly
CO, cardiac output (Beagle dogs; [4]): 2.8 ± 0.2 L/min
CVP, central venous pressure (Beagle dogs; [4]): 1.5 ± 0.2 cmH2O
HR, heart rate (Beagle dogs; [4]): 101 ± 9 beats/min
MAP, mean arterial pressure (Beagle dogs; [4]): 110 ± 5 mmHg
MPAP, mean pulmonary arterial pressure (Beagle dogs; [4]): 17 ± 1 mmHg
PCWP, pulmonary capillary wedge pressure (Beagle dogs; [4]): 3.3 ± 0.3 cm H2O
SVR, systemic vascular resistance (Beagle dogs; [4]): 3238 ± 326 dyn · s^1 · cm^−5
CO, cardiac output (Beagle dogs; [5]): 2.7 ± 0.3 L/min
CVP, central venous pressure (Beagle dogs; [5]): 1.3 ± 0.2 cmH2O
HR, heart rate (Beagle dogs; [5]): 103 ± 7 beats/min
MAP, mean arterial pressure (Beagle dogs; [5]): 108 ± 7 mmHg
MPAP, mean pulmonary arterial pressure (Beagle dogs; [5]): 17 ± 2 mmHg
PCWP, pulmonary capillary wedge pressure (Beagle dogs; [5]): 3.6 ± 0.4 cm H2O
SVR, systemic vascular resistance (Beagle dogs; [5]): 3270 ± 380 dyn · s^1 · cm^−5
CO, cardiac output (Beagle dogs; [6]): 2.5 ± 0.2 L/min
CVP, central venous pressure (Beagle dogs; [6]): 2.0 ± 0.3 cmH2O
HR, heart rate (Beagle dogs; [6]): 78 ± 5 beats/min
MAP, mean arterial pressure (Beagle dogs; [6]): 99 ± 1 mmHg
MPAP, mean pulmonary arterial pressure (Beagle dogs; [6]): 12 ± 1 mmHg
PCWP, pulmonary capillary wedge pressure (Beagle dogs; [6]): 3.5 ± 0.3 cm H2O
SVR, systemic vascular resistance (Beagle dogs; [6]): 3301 ± 320 dyn · s^1 · cm^−5
effect on hypoxia-induced increase in [Ca^2+]i (PASMCs): almost complete blockade; also recorded: significant reduction

NS(=O)(=O)c1nnc(NS(=O)(=O)c2ccccc2)s1 [BZ, benzolamide]
MPAP and PVR during hypoxia (words) (Beagle dogs; listed as Benzolamide): did not inhibit
MPAP and PVR during hypoxia (words) (Beagle dogs; listed as benzolamide): increased
CO, cardiac output (Beagle dogs; [1]): 2.6 ± 0.2 L/min
CVP, central venous pressure (Beagle dogs; [1]): 1.5 ± 0.2 cmH2O
HR, heart rate (Beagle dogs; [1]): 94 ± 10 beats/min
MAP, mean arterial pressure (Beagle dogs; [1]): 109 ± 6 mmHg
MPAP, mean pulmonary arterial pressure (Beagle dogs; [1]): 18 ± 1 mmHg
PCWP, pulmonary capillary wedge pressure (Beagle dogs; [1]): 3.2 ± 0.4 cm H2O
SVR, systemic vascular resistance (Beagle dogs; [1]): 3272 ± 113 dyn · s^1 · cm^−5
CO, cardiac output (Beagle dogs; [2]): 2.7 ± 0.2 L/min
CVP, central venous pressure (Beagle dogs; [2]): 1.2 ± 0.2 cmH2O
HR, heart rate (Beagle dogs; [2]): 90 ± 8 beats/min
MAP, mean arterial pressure (Beagle dogs; [2]): 109 ± 9 mmHg
MPAP, mean pulmonary arterial pressure (Beagle dogs; [2]): 19 ± 1 mmHg
PCWP, pulmonary capillary wedge pressure (Beagle dogs; [2]): 3.8 ± 0.3 cm H2O
SVR, systemic vascular resistance (Beagle dogs; [2]): 3227 ± 83 dyn · s^1 · cm^−5
CO, cardiac output (Beagle dogs; [3]): 2.7 ± 0.2 L/min
CVP, central venous pressure (Beagle dogs; [3]): 1.8 ± 0.3 cmH2O
HR, heart rate (Beagle dogs; [3]): 73 ± 6 beats/min
MAP, mean arterial pressure (Beagle dogs; [3]): 102 ± 5 mmHg
MPAP, mean pulmonary arterial pressure (Beagle dogs; [3]): 12 ± 1 mmHg
PCWP, pulmonary capillary wedge pressure (Beagle dogs; [3]): 3.2 ± 0.2 cm H2O
SVR, systemic vascular resistance (Beagle dogs; [3]): 3101 ± 376 dyn · s^1 · cm^−5
effect on hypoxia-induced increase in [Ca^2+]i (PASMCs): no effect; also recorded: neither EF (FIG. 5) nor BZ (FIG. 6) had a significant effect
